In EP1190708A1, “Medical use of substances” (Tinnitus Forschungs- und Entwicklungs GmbH, priority 2000, dated 2002):

How the values were obtained:
[1] = test system: inhibitory postsynaptic currents (IPSC) in outer hair cells; assay: Voltage-clamp recording of inhibitory postsynaptic currents in outer hair cells of the organ of Corti preparation; assay type: cell-based, Wistar rats; set-up: inhibition of postsynaptic currents (reversibility): dose or concentration left out as unconfirmed
Procedure: Organs of Corti were dissected from the cochleae of Wistar rats (11-24 days old) as described previously (Oliver, D. and Fakler, B. 1999. J. Physiol. (Lond.) 519 pt. 3, 791-800; Oliver, D., Klöcker, N., Schluck, J., Baukrowitz, T., Rup-persberg, J.P. and Fakler, B. 2000. Neuron 26, 591-601). The electrophysiology on OHCs was also described previously (Oliver, D. et al., 2000, see above).
(§1) In Fig 1B, postsynaptic currents were recorded from OHCs in voltage-clamp experiments when cells were held at -64 mV and the whole Corti preparation was superfused with high extracellular K^+ (150 mM) to depolarize the presynapse. Application of high K^+ and toxins as indicated by horizontal bars: current and time scaling as indicated.
as §1, with “3,” for “1B,”, “outer hair cells (OHCs)” for “OHCs”, “K^+” for “K^+ (150 mM)”, “indicated. […] This dose-dependent response determined for the IPSC in OHCs is illustrated in Fig. 3B.” for “indicated.”

[2] = biological target: T1, alpha9/alpha10 heteromeric acetylcholine receptors expressed in Xenopus oocytes (Rattus norvegicus, UniProt P43144+Q9JLB5); assay: Voltage-clamp recording of current responses to acetylcholine in oocytes expressing alpha9/alpha10 subunits; assay type: cell-based
T1 construct: expressed in transfected cells; host or cells: Xenopus laevis oocytes injected with in vitro synthesised mRNA
Procedure: In vitro mRNA synthesis and oocyte injections were performed as previously described (Fakler, B., Brandle, U., Glowatzki, E., Weidemann, S., Zenner, H.P. and Ruppersberg, J.P. 1995. Cell 80, 149-154; Oliver, D. et al., 2000, see above). The electrophysiology on oocytes was also performed as described previously (Oliver, D. et al., 2000, see above).
For further characterization of strychnine treatment on the nAChR, the mRNA of alpha9/alpha10 subunits of the acetylcholine receptor were injected in oocytes of Xexopus laevis.
After expression of these subunits, they were investigated by treatment with strychnine in voltage-clamp experiment. The cells were held at -30 mV. Current and time scaling are as indicated. As is shown in Fig. 2, similar results were obtained as in Fig. 1. Consistent with the model shown above, the current responses at the acetylcholine receptor could be blocked reversibly by application with the acetylcholine blocker strychnine.
For further characterization of memantine treatment on the neuronal acetylcholine receptor (nAChR), the mRNA of alpha9-/alpha10 subunits of the acetylcholine receptor were injected in oocytes of Xexopus laevis. After expression of that subunits, these subunits were investigated by treatment with memantine in voltage-clamp experiment. The cells were held at -30 mV. Current and time scaling are as indicated. As is shown in Fig. 4, similar results were obtained as in Fig. 3. In this experiment the polarization potential of the cells was meassured after application of 100 µM acetylcholine in the presence or absence of memantine. Consistent with the results obtained in Fig. 3, the current responses at the acetylcholine receptor could be blocked by application with memantine. A halfmaximal inhibition occurs at concentrations of approximately 1 µM, as is illustrated in Figur 4B.

T1 sequence (P43144 26-479): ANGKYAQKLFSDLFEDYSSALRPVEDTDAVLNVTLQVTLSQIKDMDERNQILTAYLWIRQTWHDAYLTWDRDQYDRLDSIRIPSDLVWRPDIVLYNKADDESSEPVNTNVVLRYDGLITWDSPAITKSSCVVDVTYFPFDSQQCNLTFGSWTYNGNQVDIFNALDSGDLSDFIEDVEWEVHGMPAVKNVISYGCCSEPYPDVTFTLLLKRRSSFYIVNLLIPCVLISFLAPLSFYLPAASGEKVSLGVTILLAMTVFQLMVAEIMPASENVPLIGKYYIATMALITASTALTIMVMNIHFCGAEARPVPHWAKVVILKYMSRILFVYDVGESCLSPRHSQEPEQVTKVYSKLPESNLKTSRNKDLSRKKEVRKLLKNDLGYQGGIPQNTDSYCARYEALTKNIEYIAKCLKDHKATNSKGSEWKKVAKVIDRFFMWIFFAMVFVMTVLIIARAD
T1 sequence (Q9JLB5 25-447): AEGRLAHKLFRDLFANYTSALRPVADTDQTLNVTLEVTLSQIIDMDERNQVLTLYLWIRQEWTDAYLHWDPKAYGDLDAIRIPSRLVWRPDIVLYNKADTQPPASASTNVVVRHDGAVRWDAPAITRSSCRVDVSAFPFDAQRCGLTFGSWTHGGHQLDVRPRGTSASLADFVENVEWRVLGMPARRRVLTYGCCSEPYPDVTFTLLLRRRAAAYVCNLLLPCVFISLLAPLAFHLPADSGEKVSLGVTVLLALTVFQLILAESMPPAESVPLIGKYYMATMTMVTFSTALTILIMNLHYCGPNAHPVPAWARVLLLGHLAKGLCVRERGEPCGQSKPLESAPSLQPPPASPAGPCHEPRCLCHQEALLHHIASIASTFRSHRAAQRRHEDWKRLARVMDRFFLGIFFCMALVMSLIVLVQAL

Compound	inhibition of postsynaptic currents (reversibility) ([1]; OHCs held at -64 mV, dose-dependent response, Fig. 3)	IC50 ([1]; Rattus norvegicus, iPSC, OHCs held at -64 mV, high extracellular K+, Fig. 3B)	IC50 [2]	complete inhibition of postsynaptic currents at (concentration) [1]	complete inhibition of current responses at the acetylcholine receptor at (concentration) [2]	reversibility of block of the receptor [2]
CC12CC3CC(C)(C1)CC(N)(C3)C2 [memantine]	reversibly inhibited	~16.6 µM	~1 µM			
O=C1C[C@@H]2OCC=C3CN4CC[C@]56c7ccccc7N1[C@H]5[C@H]2[C@H]3C[C@H]46 [strychnine]				100 nM	1 µM	reversible block of the receptor
